US9341616B2, “Sweet taste receptor chimeric proteins and use thereof” (AJINOMOTO CO., INC., priority 2014, dated 2016)
Residues, ends and D or L forms follow the SMILES beside them.

Each molecule was assayed against h-mT1R2-EX5/T1R3mosaicA (UniProt Q8TE23+Q925D8, A12W/A31M/A537S/A558R/A564V/A568V/A570T/A588V/A645S/A649T/A658V/A698V/A702T/A782V/A793V/A807V/C582S/C678S/E16H/E530V/E534N/E542M/E548N/E725V/F14L/F29L/F525Y/F541I/F612A/F622V/F665L/F695L/G696N/G701T/H528R/H728R/I36V/I490V/I510L/I518V/I595M/I60P/I617V/I643V/I645L/I692L/I695G/I706V/I740A/I803L/K30R/K504M/K555R/K565R/K626T/K714N/K818R/K827G/L17P/L521P/L560F/L571I/L578I/L610P/L631F/L636F/L639V/L684P/L688V/L702I/L734M/L735F/L800F/L823M/L825Q/M19T/M492I/M616G/M644L/M682V/M690V/M744T/M748V/N52R/N540G/N541S/N547G/N58S/N63T/N675D/N721H/P545F/P561R/P564S/P61V/P638T/P824S/Q32K/Q536L/Q53S/Q546K/Q550E/Q555R/Q56R/Q611L/Q676H/Q757R/Q795R/Q831P/R498S/R632Q/R667S/S22P/S45E/S501P/S547N/S550A/S576L/S595F/S610P/S628F/S635P/S637R/S663R/S670G/S679G/S681F/S703N/S717H/S727G/S784D/S804G/T46A/T50G/T529S/T542A/T549I/T609V/T629S/T642S/T663I/T694M/T705I/T706G/T716I/T813A/V508I/V512P/V557A/V573A/V584A/V585L/V613L/V617M/V673M/V687A/V691A/V694A/V718L/V718M/V723A/V729T/V738A/V741L/V774I/V791M/V805L/V812A/V821L/W599R/W676R/W824R/Y533F/Y615F/Y671F/Y680C/Y769S/Y783H/Y794L). Conditions: Table 4; genes h-mTEX5/T3mA (h-mT1R2-EX5, T1R3mA); HEK293E cells.
Chain of h-mT1R2-EX5/T1R3mosaicA (Q8TE23 with tags, fused parts or gaps with the stated changes limits assumed): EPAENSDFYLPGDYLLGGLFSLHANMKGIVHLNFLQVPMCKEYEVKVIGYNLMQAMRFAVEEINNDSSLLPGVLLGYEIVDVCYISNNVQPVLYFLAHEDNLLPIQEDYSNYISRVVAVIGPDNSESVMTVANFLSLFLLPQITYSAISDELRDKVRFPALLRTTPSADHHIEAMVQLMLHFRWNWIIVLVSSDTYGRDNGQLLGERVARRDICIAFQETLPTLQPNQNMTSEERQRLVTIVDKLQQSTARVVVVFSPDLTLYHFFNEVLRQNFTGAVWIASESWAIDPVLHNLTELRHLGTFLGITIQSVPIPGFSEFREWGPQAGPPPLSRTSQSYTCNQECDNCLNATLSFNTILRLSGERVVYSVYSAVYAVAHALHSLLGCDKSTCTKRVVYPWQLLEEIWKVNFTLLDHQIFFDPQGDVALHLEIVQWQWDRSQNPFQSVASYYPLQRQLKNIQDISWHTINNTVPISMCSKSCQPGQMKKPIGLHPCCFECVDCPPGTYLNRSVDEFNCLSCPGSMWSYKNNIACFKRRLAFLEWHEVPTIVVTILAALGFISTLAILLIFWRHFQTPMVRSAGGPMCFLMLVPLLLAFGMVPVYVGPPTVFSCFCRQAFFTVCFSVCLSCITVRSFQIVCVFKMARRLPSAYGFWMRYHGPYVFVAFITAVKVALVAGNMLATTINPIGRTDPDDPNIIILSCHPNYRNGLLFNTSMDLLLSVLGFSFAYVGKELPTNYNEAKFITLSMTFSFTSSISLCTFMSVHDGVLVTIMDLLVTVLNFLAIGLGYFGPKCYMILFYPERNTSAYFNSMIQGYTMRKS
Chain of h-mT1R2-EX5/T1R3mosaicA (Q925D8 with tags, fused parts or gaps with the stated changes limits assumed): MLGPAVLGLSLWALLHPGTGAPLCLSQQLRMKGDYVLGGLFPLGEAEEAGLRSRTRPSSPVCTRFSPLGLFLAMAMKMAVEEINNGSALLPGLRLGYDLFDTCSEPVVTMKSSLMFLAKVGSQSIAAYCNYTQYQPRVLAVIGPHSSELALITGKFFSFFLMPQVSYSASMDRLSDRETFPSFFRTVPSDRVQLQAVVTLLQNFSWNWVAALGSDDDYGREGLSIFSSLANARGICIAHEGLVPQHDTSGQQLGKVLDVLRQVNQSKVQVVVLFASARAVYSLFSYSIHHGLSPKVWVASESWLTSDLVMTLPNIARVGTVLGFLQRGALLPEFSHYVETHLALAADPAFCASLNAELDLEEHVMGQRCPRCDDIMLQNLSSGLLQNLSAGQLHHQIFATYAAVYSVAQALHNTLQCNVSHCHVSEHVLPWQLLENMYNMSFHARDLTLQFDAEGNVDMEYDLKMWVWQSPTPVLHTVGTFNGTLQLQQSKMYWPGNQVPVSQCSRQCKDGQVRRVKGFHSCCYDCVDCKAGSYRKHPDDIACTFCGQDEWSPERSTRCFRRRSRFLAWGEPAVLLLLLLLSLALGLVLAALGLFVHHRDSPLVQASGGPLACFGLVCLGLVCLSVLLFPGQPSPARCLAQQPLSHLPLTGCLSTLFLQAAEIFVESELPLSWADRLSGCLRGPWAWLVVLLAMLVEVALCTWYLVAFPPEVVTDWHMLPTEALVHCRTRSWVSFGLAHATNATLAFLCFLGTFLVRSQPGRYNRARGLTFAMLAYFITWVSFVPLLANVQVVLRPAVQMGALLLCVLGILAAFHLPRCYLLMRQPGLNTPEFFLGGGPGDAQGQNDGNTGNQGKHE
In the case of `COC(=O)[C@H](Cc1ccccc1)NC(=O)[C@@H](N)CC(=O)O` [Aspartame, aspartame] (HELM PEPTIDE1{D.F.[CO[*:1]]}$$$$V2.0), the S/N was 7.6. Molecule `OC[C@H]1O[C@H](O[C@]2(CCl)O[C@H](CCl)[C@@H](O)[C@@H]2O)[C@H](O)[C@@H](O)[C@H]1Cl` [Sucralose, sucralose] has a S/N of 7.4. `O=C1NS(=O)(=O)c2ccccc21.[Na]` [Saccharin Na, sodium saccharin] gave a S/N of 4.6. `COC(=O)[C@H](Cc1ccccc1)NC(=O)[C@H](CC(=O)O)NCCCc1ccc(OC)c(O)c1` [Advantame, advantame] was tested, and the S/N was 9.4. `C[C@H](NC(=Nc1ccc(C#N)cc1)NCC(=O)O)c1ccccc1` [SC-45647, [3-[(S)-1-phenylethyl]-2-(4-cyanophenyl)guanidino]acetic acid] gave a S/N of 7.3. In the case of `OC[C@H]1O[C@@](CO)(O[C@H]2O[C@H](CO)[C@@H](O)[C@H](O)[C@H]2O)[C@@H](O)[C@@H]1O` [Sucrose, sucrose], the S/N was 3.5. `CC1=CC(=O)NS(=O)(=O)O1` [Acesulfame K, acesulfame potassium] gave a S/N of 5.1. `COC(=O)[C@H](Cc1ccccc1)NC(=O)[C@H](CC(=O)O)NCCC(C)(C)C` [Neotame, neotame] showed a S/N of 7.5.
